Measured values published in ChEMBL document CHEMBL4513160, “CO-ADD screening of MMV (CH) - Small Polar Library”.
≈ marks a conversion by molar mass, not a printed value.

What was measured:
[1] = system: Pseudomonas aeruginosa; test: Antibacterial activity against Pseudomonas aeruginosa PAO397 [PAO1 d(mexAB-oprM) d(mexCD-oprJ) d(mexEF-oprN) d(mexJKL) d(mexXY) d(opmH)] (CO-ADD:GN_211); MIC in CAMBH media using NBS plates, by OD(600); format: functional; conditions: ASSAY_TEST Inhibition of Bacterial Growth, detection method Absorption (OD600), MEDIA CAMHB, plate type 384well, CORNING #3640, time 18 hr
[2] = system: Acinetobacter baumannii; test: microbe, parasite or virus in culture; conditions: ATCC 19606, 18 h, ASSAY_TEST Inhibition of Bacterial Growth, detection method Absorption (OD600), MEDIA CAMHB, plate type 384well, NBS, CORNING #3640
Description: Antibacterial activity against Acinetobacter baumannii ATCC 19606 (CO-ADD:GN_034); MIC in CAMBH media using NBS plates, by OD600

[3] = system: Pseudomonas aeruginosa; test: microbe, parasite or virus in culture; conditions: ATCC 27853, 18 h, ASSAY_TEST Inhibition of Bacterial Growth, detection method Absorption (OD600), MEDIA CAMHB, plate type 384well, NBS, CORNING #3640
Description: Antibacterial activity against Pseudomonas aeruginosa ATCC 27853 (CO-ADD:GN_042); MIC in CAMBH media using NBS plates, by OD(600)

| Compound | MIC [1] [µM] | MIC [2] [µM] | MIC [3] [µM] |
| --- | --- | --- | --- |
| NC(=O)C1CCN(Cc2ccc(Br)c3cccnc23)C1 (stereo not given) | > 300 | > 300 | > 300 |
| CNC(=O)C1CCN(C(=O)Nc2ccc(C)c(Cl)c2)C1 (stereo not given) | 90 (≈ 26.6 µg/mL) | > 300 | > 300 |
| Cc1cc(Br)cc(C(=O)NCc2nccc(N)n2)c1 | > 300 | > 300 | > 300 |
| NCc1cccc(-c2ccccn2)n1 | 200 (≈ 37 µg/mL) | > 300 | 300 (≈ 55.6 µg/mL) |
| Nc1cnccc1N1CCCCC1 | > 300 | > 300 | > 300 |
| NCC(CO)Cc1ccc(Br)cc1 (stereo not given) | > 300 | > 300 | > 300 |
| NCCNS(=O)(=O)c1ccc(-c2ccccc2)cc1 | > 300 | > 300 | > 300 |
| CNCCC1CCN(c2ccncc2)CC1 | > 300 | > 300 | > 300 |
| Cc1cc(C(=O)Nc2ccc3c(c2)CCN3)n(C)n1 | > 300 | > 300 | > 300 |
| Cc1ocnc1C(=O)Nc1ccc2c(c1)NCCC2 | > 300 | > 300 | > 300 |
| CCCNc1nc(C)c(C(C)=O)s1 | 200 (≈ 39.7 µg/mL) | > 300 | > 300 |
| CCOC(=O)C(CN)CC(C)C (stereo not given) | > 300 | > 300 | > 300 |
| O=C(c1cnsn1)N1CCN(c2ccccn2)CC1 | > 300 | > 300 | > 300 |
| CCC1Oc2c(Cl)cccc2NC1=O (stereo not given) | > 300 | > 300 | > 300 |
| Cc1cc(NC(C)CO)nc2ccccc12 (stereo not given) | > 300 | > 300 | > 300 |
| Cc1c[nH]c2ccccc2c1=N | > 300 | > 300 | > 300 |
| N#Cc1nnc(-c2ccccc2)o1 | > 300 | > 300 | > 300 |
| CC(=O)Nc1ccc(-c2ccc(C#N)nc2)cc1 | > 300 | > 300 | > 300 |
| Cc1nnc(SCC(=O)NCCCc2csc(N)n2)s1 | > 300 | > 300 | > 300 |
| Cn1cc(CC(=O)Nc2ccc(I)cn2)cn1 | > 300 | > 300 | > 300 |
| Cc1cccc(S(=O)(=O)NC2CCNC2)c1Cl (stereo not given) | > 300 | > 300 | > 300 |
| CC(O)CN1C(=O)C=CC1=O (stereo not given) | > 300 | > 300 | > 300 |

| Compound | MIC [1] [µM] | MIC [2] [µM] | MIC [3] [µM] |
| --- | --- | --- | --- |
| NC(=O)CSc1nnc(-c2cc(Br)ccc2O)[nH]1 | > 300 | > 300 | > 300 |
| Cc1ccc(C(=O)N2CCN(c3nccs3)CC2)o1 | > 300 | > 300 | > 300 |
| CCCc1cc(C(=O)NCCc2nc(C)c[nH]2)[nH]n1 | 300 (≈ 78.4 µg/mL) | > 300 | > 300 |
| Cc1cc(N2CCN(CCO)CC2)nc2ccccc12 | > 300 | > 300 | > 300 |
| NCC1CCN(CCc2ccccc2)C1 (stereo not given) | > 300 | > 300 | > 300 |
| COCCOc1ccc(CNC(=O)c2ccoc2)cn1 | > 300 | > 300 | 60 (≈ 16.6 µg/mL) |
| c1ccc2c(N3CCNCC3)cncc2c1 | > 300 | > 300 | > 300 |
| NC1CSCc2c(F)cccc21 (stereo not given) | > 300 | > 300 | > 300 |
| Cn1ncnc1NC(=O)c1ccc(C#N)cc1 | 200 (≈ 45.4 µg/mL) | > 300 | 200 (≈ 45.4 µg/mL) |
| O=C1C=CC(=O)N1Cc1ccc(Cl)cc1 | > 300 | > 300 | > 300 |
| Cc1ccc(OC(C)CN)cc1 (stereo not given) | > 300 | > 300 | > 300 |
| O=C(NCCO)Nc1cc(F)ccc1N1CCCCC1 | 300 (≈ 84.4 µg/mL) | > 300 | > 300 |
| Cc1cccc(OCCc2noc(C3CNC3)n2)c1 | 200 (≈ 51.9 µg/mL) | > 300 | > 300 |
| CCCOc1ccc(NS(=O)(=O)N(C)C)cc1Cl | > 300 | > 300 | > 300 |
| CNC(=O)Cn1cc(-c2cccc3cnccc23)cn1 | > 300 | > 300 | > 300 |
| NCc1cnn(-c2ccc(Cl)cc2)c1 | > 300 | > 300 | > 300 |
| Brc1ccc2c(c1)OCCNC2 | > 300 | > 300 | > 300 |
| OCC(O)CNc1ccnc2ccc(Br)cc12 (stereo not given) | > 300 | > 300 | > 300 |
| CCN1CCN(c2cc(C#N)ccn2)CC1 | > 300 | > 300 | > 300 |
| CCOc1nnc(CN2CCC(C(N)=O)CC2)s1 | > 300 | > 300 | > 300 |
| Cn1cc(NC(=O)c2ccc(Br)s2)cc1C(N)=O | > 300 | > 300 | > 300 |
| CCCSc1ccc(NC(=O)NCCN)cc1 | > 300 | > 300 | > 300 |

| Compound | MIC [1] [µM] | MIC [2] [µM] | MIC [3] [µM] |
| --- | --- | --- | --- |
| NCCS(=O)(=O)N1CCCc2ccccc21 | > 300 | > 300 | > 300 |
| c1cn2c(n1)COCC2 | > 300 | > 300 | > 300 |
| NCC1CCN(Cc2cccc(F)c2)CC1 | > 300 | > 300 | > 300 |
| CC(C)c1ccoc1C(=O)N(C)c1cc(C#N)ccn1 | > 300 | > 300 | > 300 |
| C[C@@]1(N)C[C@H]1c1ccccc1 | 200 (≈ 29.4 µg/mL) | > 300 | > 300 |
| CC(N)c1nc(-c2ccc(Br)cc2)c[nH]1 (stereo not given) | > 300 | > 300 | > 300 |
| CCNCCOc1cccc(OCC)c1 | > 300 | > 300 | > 300 |
| NCCc1cccc2cc[nH]c12 | > 300 | > 300 | > 300 |
| c1ccc(Nc2nccs2)nc1 | > 300 | > 300 | > 300 |
| NC1CCN(c2ccccc2F)CC1 | > 300 | > 300 | > 300 |
| N#CC(c1ccc(Br)cc1)N1CCNCC1 (stereo not given) | > 300 | > 300 | > 300 |
| COc1c(C(=O)N2CCOCC2)sc2ccc(F)cc12 | > 300 | > 300 | > 300 |
| CN(Cc1ccc(Cl)cc1)C(=O)C1CCNC1 (stereo not given) | > 300 | > 300 | > 300 |
| CCC(C#N)NC(=O)c1cnc(OC(C)C)c(Cl)c1 (stereo not given) | > 300 | > 300 | > 300 |
| COc1cccc2c(N)c(C)cnc12 | > 300 | > 300 | > 300 |
| NCC1Cc2ccccc21 (stereo not given) | > 300 | > 300 | > 300 |
| CC(=O)c1ccc(NC(=O)CCc2cccs2)nc1 | > 300 | > 300 | > 300 |
| N[C@@H]1CCCc2c(F)cc(F)cc21 | > 300 | > 300 | > 300 |
| c1cc(CNc2ncnc3[nH]ncc23)c2c(c1)OCO2 | > 300 | > 300 | > 300 |
| CS(=O)(=O)N1CCSc2ccc(Cl)cc21 | > 300 | > 300 | > 300 |
| OCC1(O)CCCN(c2ccnc3ccc(Cl)cc23)C1 (stereo not given) | > 300 | > 300 | > 300 |
| O=C(CSCCO)Nc1ncc(-c2ccccc2)s1 | 200 (≈ 58.9 µg/mL) | > 300 | > 300 |

| Compound | MIC [1] [µM] | MIC [2] [µM] | MIC [3] [µM] |
| --- | --- | --- | --- |
| O=C(Nc1ccncc1)c1coc(Br)c1 | > 300 | > 300 | > 300 |
| CCC(C)(C)NC(=O)c1nnn(-c2ccccc2)c1C | > 300 | > 300 | > 300 |
| COc1ccc(-c2ccnc(CO)c2)c(OC)c1 | > 300 | > 300 | > 300 |
| NCCNS(=O)(=O)c1ccc(F)c(C(F)(F)F)c1 | > 300 | > 300 | > 300 |
| O=C1c2ccccc2OCC1CN1CCOCC1 (stereo not given) | > 300 | > 300 | > 300 |
| NC(=O)Nc1cccc(C(=O)Nc2ccc(Cl)cn2)c1 | > 300 | > 300 | > 300 |
| CN(C)c1ccc(-c2[nH][nH]c(=O)c2CCN)cc1 | > 300 | > 300 | > 300 |
| Cc1cccc(C(=O)Nc2ncc(C)s2)n1 | > 300 | > 300 | > 300 |
| CC(C)(N)C(O)c1ccc(Br)cc1 (stereo not given) | > 300 | > 300 | > 300 |
| O=C(c1c(O)cccc1F)N1CCc2cnccc21 | > 300 | > 300 | > 300 |
| C[C@@H](N)C(=O)NCc1cc2cc(Cl)ccc2[nH]1 | 300 (≈ 75.5 µg/mL) | > 300 | > 300 |
| NCC(=O)N(Cc1cccs1)Cc1cccs1 | > 300 | > 300 | > 300 |
| Fc1cccnc1OC1CCNCC1 | > 300 | > 300 | > 300 |
| COc1ncccc1-c1csc(NCCSC)n1 | > 300 | > 300 | > 300 |
| CC(C)(N)CN1CCN(c2cccc(Cl)c2)CC1 | > 300 | > 300 | > 300 |
| CC(C)C(=O)c1cnccc1N | > 300 | > 300 | > 300 |
| FC(F)Oc1cccc(N2CCNCC2)c1 | > 300 | > 300 | > 300 |
| c1ccc(N2CCN(c3ncccn3)CC2)nc1 | > 300 | > 300 | > 300 |
| OCCCN(CCO)Cc1c(Cl)ccc2cccnc12 | > 300 | > 300 | > 300 |
